Experimental findings from US9416141B2 (University of Washington through its Center for …, priority 2012, dated 2016) are described below.

The structures appear in SMILES notation. Where a name gives a salt, the structure may show the parent alone.

For the assay, the system named is hair cells. Briefly: Hair cell toxicity assay in zebrafish (neomycin-induced hair cell death, DASPEI staining of neuromasts). In kind it is in vivo. The settings on record: Danio rerio; for Emax at 2.8 µM: maximum observed @ 2.8 μM test compound; for EC50: zebrafish larvae 5-7 dpf, 1 h pre-treatment, then 200 micromolar neomycin + test compound 30 min, read-out: HC50 (concentration that would produce 50% hair cell survival); for Emax at 25 µM: maximum observed @ 25 μM test compound. The gist of the method: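 Hair cell survival, as % of untreated controls, came from DASPEI scoring (0-2 each, ten neuromasts on one side) in 5-7 dpf larvae. These had 1 h compound pre-exposure (0.010-25 μM), then 200 μM neomycin with compound for 30 min. HCmax is peak protection; HC50 interpolated between flanking concentrations only when ≥50% survive.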

The mark [1] stands for this setting: 200 micromolar neomycin, read-out: Max HC Protection (HCmax, % hair cell survival).

Regarding `NC(=O)c1c(NC(=O)Nc2ccc(Cl)cc2)sc2c1CCN(CCCNC(=O)/C=C/c1ccccc1)C2` [Example 217, 2-{[(4-chlorophenyl)carbamoyl]amino}-6-{3-[(2E)-3-phenylprop-2-enamido]propyl}-4H,5H,6H,7H-thieno[2,3-c]pyridine-3-carboxamide], the EC50 is under 1 µM. In addition, under setting [1], the Emax at 2.8 µM was 93%.
With `CCN1CCc2c(sc(NC(=O)Nc3cn(C)c4ccccc34)c2C(N)=O)C1` [Example 82, 6-Ethyl-2-[3-(1-methyl-1H-indol-3-yl)ureido]-4,5,6,7-tetrahydrothieno[2,3-c]pyridine-3-carboxamide hydrochloride], the Emax at 25 µM under setting [1] is 23%.
`CC(C)(O)CN1CCc2c(sc(NC(=O)Nc3ccc(Cl)cc3)c2C(N)=O)C1` [Example 119, 2-[3-(4-chlorophenyl)ureido]-6-(2-hydroxy-2-methylpropyl)-4,5,6,7-tetrahydrothieno[2,3-c]pyridine-3-carboxamide]: the EC50 is 1 to 10 µM. For the same compound, the Emax at 25 µM under setting [1] is 65%.
In the same order, the values of `C[N+]1(C)C2CCC1c1sc(NC(=O)Nc3ccc(Cl)cc3)c(C(N)=O)c1C2` (racemic) [Example 188, (+/−)-3-Carbamoyl-2-[3-(4-chlorophenyl)ureido]-9,9-dimethyl-5,6,7,8-tetrahydro-4H-thienocyclohepten-5,8-iminium iodide] are 1 to 10 µM and 59%.
On to `CC(C)(C)OC(=O)CN1CCc2c(sc(NC(=O)Nc3ccc(Cl)cc3)c2C(N)=O)C1` [Example 58, tert-butyl 2-{3-carbamoyl-2-[3-(4-chlorophenyl)ureido]-4,5-dihydrothieno[2,3-c]pyridin-6(7H)-yl}acetate], for which the Emax at 2.8 µM under setting [1] amounted to 7%.
In the case of `CON=C1CCc2c(sc(NC(=O)Nc3ccc(Cl)cc3)c2C(N)=O)C1` (single isomer, unassigned) [Example 121, 2-[3-(4-chlorophenyl)ureido]-6-(methoxyimino)-4,5,6,7-tetrahydrobenzo[b]thiophene-3-carboxamide], the Emax at 3 µM (maximum observed @ 03 μM test compound, 200 micromolar neomycin, read-out: Max HC Protection (HCmax, % hair cell survival)) was determined as 6%.
As for `CCN1CCc2c(sc(NC(=O)Nc3ccc(Cl)cc3Cl)c2C(N)=O)C1` [Example 229, 2-{[(2,4-dichlorophenyl)carbamoyl]amino}-6-ethyl-4H,5H,6H,7H-thieno[2,3-c]pyridine-3-carboxamide], the EC50 is over 10 µM. Moreover, the Emax at 25 µM under setting [1] was 54%.
In the same order, the values of `NC(=O)c1c(NC(=O)Nc2ccc(Cl)cc2)sc2c1CCN(C1COC1)C2` [Example 6, 2-[3-(4-Chlorophenyl)ureido]-6-(oxetan-3-yl)-4,5,6,7-tetrahydrothieno[2,3-c]pyridine-3-carboxamide hydrochloride] are 1 to 10 µM and 72%.
With `CCN1CCc2c(sc(NC(=O)Nc3ccc(Cc4ccccc4)cc3)c2C(N)=O)C1` [Example 226, 2-{[(4-benzylphenyl)carbamoyl]amino}-6-ethyl-4H,5H,6H,7H-thieno[2,3-c]pyridine-3-carboxamide], the EC50 fell in the range of 1 to 10 µM. The Emax at 8.3 µM (maximum observed @ 8.3 μM test compound, 200 micromolar neomycin, read-out: Max HC Protection (HCmax, % hair cell survival)) turned out to be 68%.
On to `NC(=O)c1c(NC(=O)Nc2ccc(Cl)cc2)sc2c1CCN(CCO)C2` [Example 60, 2-[3-(4-Chlorophenyl)ureido]-6-(2-hydroxyethyl)-4,5,6,7-tetrahydrothieno[2,3-c]pyridine-3-carboxamide hydrochloride], for which the EC50 lay in the range of 1 to 10 µM. Moreover, the Emax at 25 µM under setting [1] was determined as 71%.
On to `CC(C)(C)OC(=O)NCCCN1CCc2c(sc(NC(=O)Nc3ccc4ccccc4c3)c2C(N)=O)C1` [Example 206, tert-Butyl N-[3-(3-carbamoyl-2-{[(naphthalen-2-yl)carbamoyl]amino}-4H,5H,6H,7H-thieno[2,3-c]pyridin-6-yl)propyl]carbamate], for which the EC50 fell in the range of 1 to 10 µM. Under “maximum observed @ 6.3 μM test compound, 200 micromolar neomycin, read-out: Max HC Protection (HCmax, % hair cell survival)”, the Emax at 6.3 µM was 88%.
For `CC(=O)NCCN1CCc2c(sc(NC(=O)Nc3ccc(Cl)cc3)c2C(N)=O)C1` [Example 15, 6-(2-Acetamidoethyl)-2-[3-(4-chlorophenyl)ureido]-4,5,6,7-tetrahydrothieno[2,3-c]pyridine-3-carboxamide trifluoroacetate], the EC50 is over 10 µM. Further, under setting [1], the Emax at 25 µM was 57%.
